Laboratory results taken from patent US20130158014A1, “METHOD FOR TREATING DISEASES ASSOCIATED WITH ALTERATIONS IN CELLULAR INTEGRITY USING RHO KINASE INHIBITOR COMPOUNDS” (priority 2008, published 2013).
Where two headings read alike, the source gives them in different places.

Experiments:
ERK2 = target: T1, ERK2 (Homo sapiens, UniProt P28482); test: Kinase panel screen (KinaseProfiler): ERK2; assay type: biochemical; conditions: 10 μM ATP, read-out: Percent inhibition ERK2; for activity at 1 µM: 1 μM test compound; for activity at 10 µM: 10 μM test compound
T1 construct: purchased Upstate, Millipore Bioscience Division (KinaseProfiler service)
T1 sequence (P28482 whole entry): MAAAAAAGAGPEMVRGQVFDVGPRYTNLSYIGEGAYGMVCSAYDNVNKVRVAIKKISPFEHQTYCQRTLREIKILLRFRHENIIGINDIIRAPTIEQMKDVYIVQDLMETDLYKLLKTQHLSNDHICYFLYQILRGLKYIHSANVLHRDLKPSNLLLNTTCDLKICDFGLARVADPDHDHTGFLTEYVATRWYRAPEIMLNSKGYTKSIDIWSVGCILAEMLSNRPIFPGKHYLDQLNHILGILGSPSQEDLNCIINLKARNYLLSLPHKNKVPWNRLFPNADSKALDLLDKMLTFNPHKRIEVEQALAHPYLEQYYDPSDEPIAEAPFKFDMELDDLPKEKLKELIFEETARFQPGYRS
Protocol: Compounds of Formulae I and II were examined for activity against a selected panel of kinases using the KinaseProfiler™ enzyme profiling services (Upstate, Millipore Bioscience Division). Percent kinase activity at 10 μM and 1 μM test compound and 10 μM ATP was determined against 40 wild-type recombinant human kinases according to Upstate's standard protocol: ASK1, BTK, CSK, c-RAF, GCK, GSK3β, IKKα, IKKβ, IRAK1, IRAK4, JNK1α1, JNK2α2, JNK3, ERK1, ERK2, MAPKAP-K2, MAPKAP-K3, MEK1, MKK4, MKK6, MKK7β, Mnk2, MSK1, PAK3, PDK1, PRAK, ROCK1, Rsk2, SAPK2a, SAPK2b, SAPK3, SAPK4, SRPK1, SRPK2, Syk, TAK1, TBK1, PI3-Kβ, PI3-Kγ, PI3-Kδ.

[1] = tested on: ova-sensitized, ova-challenged mice; test: Prevention of airway hyperreactivity (Penh, methacholine) in mouse ovalbumin model; assay type: in vivo; conditions: days 27 to 31; for airway hyperreactivity: intratracheal once a day
Protocol: The anti-inflammatory dosing paradigm consists of dosing the animals once a day starting on day 27 and finishing on either day 30 or 31 (1 hr prior to the aerosolized ovalbumin challenges on days 28 to 30) but not on day 32 when hyperreactivity evaluation occurs. […] Exposure to the methacholine doses consisted of a 3 minute period during which a nebulizer was aerosolizing the methacholine and an additional 3 minute period following the cessation of nebulization. […] Enhanced pause (Penh), a unitless index of airway hyperreactivity, is derived from the expiratory side of the respiratory waveform measured via the plethysmograph and is used as an indirect measure of airway resistance and hyperreactivity. […] Following the methacholine dose response, BALF was collected and all animals were anesthetized, bled and euthanized. […] The Penh value at each of the dose levels of methacholine represents the 6-minute average response. Change from baseline (CFB) in Penh was calculated at each methacholine dose and the area under the curve (AUC) for these CFB values was calculated using the trapezoidal rule. This same approach was applied for each mouse across multiple experiments. […] Data from equal experimental conditions across experiments performed on different days were pooled for statistical analysis and data reporting. […] A random intercept for each experiment was assumed to account for possible similarities of the results obtained from a given experiment (i.e., as a “blocking effect”). […] For FIG. 9, linear AUC values from compound treated mice were reported as a percent of linear AUC values from vehicle-treated ovalbumin-sensitized/ovalbumin-challenged (asthmatic) mice.

[2] = tested on: ova-sensitized, ova-challenged mice; test: Mouse ovalbumin sensitization model: eosinophils in BALF; assay type: in vivo; conditions: dosed orally once a day, day 27 to day 31; FIG. 4
Protocol: Male BALB/c mice were ordered from Charles River Laboratories (Raleigh, N.C.). The animals were approximately 19 to 21 grams at time of receipt. Upon arrival, the animals were randomized into groups of five males per cage and assigned to a dosing group. Animals were quarantined for 7 days under test conditions. They were observed daily for general health status and ability to adapt to the water bottles. Animals were sensitized on day 0 and 14 of study by an intraperitoneal injection with 20 μg of ovalbumin (ova) and 2.0 mg aluminum hydroxide (alum) which initiates the development of a specific T-helper (Th) cells type 2 resulting in asthmatic animals (denoted as Ova in the figures). One group of animals received an injection of saline to use as control animals (denoted as normal in the figures). All animals were challenged with aerosolized 1% ova once daily for 25 minutes on days 28, 29, and 30 (Zosky, et al. Respiratory Research. 2004; 5:15). Aerosol challenge consists of using an Aerogen Aeroneb nebulizer and controller with a particle size of 4-6 μm mass median aerodynamic diameter (MMAD) with a distribution of 400 μl per minute. This aerosol challenge is necessary to target the Th2-driven allergic inflammation in the lower airways. […]
Bronchoalveolar lavage fluid (BALF) was collected by infusing 3.0 ml of saline with 10% fetal calf serum into the lungs via the trachea and then withdrawing the fluid. The total amount of cells/ml of BALF fluid was determined via manual cell count on hemocytometer. The BALF was centrifuged, supernatant removed and analyzed for cytokine concentrations as described below, and cell pellet reconstituted in 500 μL of fluid. […] Following Hema3 stain, relative percentages of individual leukocytes were determined on a 200 cell count for each sample. The final concentration of individual leukocyte cell types per ml of BALF was determined by multiplication of the relative percentage of individual leukocytes with the total amount of cells/ml of BALF fluid.

[3] = Compound plasma concentrations in unsensitized mice at 15 min post administration; assay type: in vivo, mouse; conditions: for Mouse Oral PK: mean plasma concentration in mice, 15 minutes post oral administration; for Plasma Mean Concentration: mice, 15 min post administration, mean n = 3 mice
Protocol: Test compounds were formulated in water or 1% polysorbate 80 and dosed at 15 μmmol/kg for intraperitoneal (IP) or oral (PO) administration or formulated for intratracheal (IT) administration and dosed at 5 μmmol/kg, which directly targets the lungs. Following completion of the in vivo study, mice were euthanized and blood and plasma collected approximately 2.5-3 hours post administration of test compound for bronchodialator (BD) studies and 24 hours post administration for anti-inflamatory (AI) studies. […] Both plasma samples and lung extracts were assayed for compound concentrations using an on-line, solid phase extraction LC/MS/MS system.

p70S6K = target: T2, p70S6K (Homo sapiens, UniProt P23443, T412E); test: p70S6K inhibition assay (IMAP); assay type: biochemical; conditions: average
T2 construct: purchased Upstate Chemicon 14-486
T2 sequence (P23443 1-421 T412E limits assumed): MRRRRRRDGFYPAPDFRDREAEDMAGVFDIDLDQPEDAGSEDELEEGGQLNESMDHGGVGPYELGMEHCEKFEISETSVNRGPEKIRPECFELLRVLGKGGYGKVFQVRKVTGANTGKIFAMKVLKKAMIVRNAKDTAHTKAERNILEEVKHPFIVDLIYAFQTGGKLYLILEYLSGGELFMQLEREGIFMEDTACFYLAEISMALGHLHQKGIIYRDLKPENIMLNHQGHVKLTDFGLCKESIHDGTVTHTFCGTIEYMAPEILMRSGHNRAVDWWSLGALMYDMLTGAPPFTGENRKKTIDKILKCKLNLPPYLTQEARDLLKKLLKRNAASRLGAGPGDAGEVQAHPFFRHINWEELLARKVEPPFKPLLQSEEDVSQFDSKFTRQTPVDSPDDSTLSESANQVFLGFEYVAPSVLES
Protocol: (§1) Inhibition of Akt3 and p70S6K activity was determined using the IMAP™ FP Progressive Binding Kit (Molecular Devices product number R8127). […] Following the pre-incubation, 30 μM ATP was added to initiate the reaction. After 60 minutes at RT, Molecular Devices IMAP™ binding solution was added to bind phosphorylated substrate. After 30 minutes of incubation in the presence of the IMAP™ beads the fluorescence polarization was read and the ratio was reported as mP. IC50 results were calculated using the Prism software from Graphpad. The Ki values were determined according to the following formula: Ki=IC50/(1+([ATP Challenge]/EC50 ATP)).

[4] = Rat oral pharmacokinetics (plasma); assay type: in vivo; conditions: rat oral PK, mean n = 3 rats, 20-30 μmmol/kg
Protocol: Plasma (EDTA K2 anticoagulant) was collected from male, cannulated, CD Sprague Dawley rats to determine the pharmacokinetics of formulations containing compound inhibitors of Rho kinase. Each animal was dosed orally with a 4 ml/kg solution or suspension of each test compound in 10 mM acetate buffered saline, pH 4.5 at a final concentration range of 20-30 μmmol/kg. Blood was collected at 0.25, 0.5, 1, 2, 4, 6, 8, and 24 hours. Plasma samples were assayed for the concentration of the test compound using an on-line, solid phase extraction LC/MS/MS analysis system.
Samples were analyzed on a QSTAR Elite, hybrid quadrupole time-of-flight mass spectrometer (Applied Biosystems, Framingham, Mass.) coupled with a Symbiosis Pharma integrated, on-line SPE-HPLC system (Spark Holland Inc., Plainsboro, N.J.). Analyst QS 2.0 software was used for instrument control, data acquisition and processing. […] Mobile Phase A consisted of 0.1% ammonium hydroxide in water and Mobile Phase B consisted of 0.1% formic acid in acetonitrile. Pharmacokinetic analyses were performed using WinNonlin software version 5.2 (Pharsight Corporation, Mountain View, Calif.).
As determined from the plasma concentration versus time curves, the time to peak and peak exposure are represented by the values Tmax and Cmax, respectively. The AUC values (nM*hr) shown were calculated as the areas under the plasma concentration versus time curves from time zero through the time of the last observable value and represent the total exposure of the compound over the course of the study. Half-life values or the amount of time required for the plasma levels of the compound to decline to half the initial value are represented as t1/2.

ROCK2 = target: T3, ROCK2 (Homo sapiens, UniProt O75116); test: Rho kinase inhibition assay (IMAP), ROCK2; assay type: biochemical; conditions: average
T3 construct: purchased Upstate/Chemicon 14-451
T3 sequence (O75116 11-552 limits assumed): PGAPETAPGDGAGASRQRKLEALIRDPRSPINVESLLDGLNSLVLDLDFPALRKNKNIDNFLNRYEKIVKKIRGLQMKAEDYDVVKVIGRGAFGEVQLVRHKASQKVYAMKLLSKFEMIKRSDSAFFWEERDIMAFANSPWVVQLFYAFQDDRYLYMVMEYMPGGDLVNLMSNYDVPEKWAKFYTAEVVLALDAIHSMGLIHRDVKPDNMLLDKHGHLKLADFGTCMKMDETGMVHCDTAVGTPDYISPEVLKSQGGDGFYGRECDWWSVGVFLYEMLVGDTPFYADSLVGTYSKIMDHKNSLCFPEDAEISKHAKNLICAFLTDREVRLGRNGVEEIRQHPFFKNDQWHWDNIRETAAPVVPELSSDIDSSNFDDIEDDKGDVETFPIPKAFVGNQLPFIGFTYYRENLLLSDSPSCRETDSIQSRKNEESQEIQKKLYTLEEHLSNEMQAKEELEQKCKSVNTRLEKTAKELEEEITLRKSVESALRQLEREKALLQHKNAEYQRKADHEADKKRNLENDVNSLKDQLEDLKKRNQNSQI
Protocol: Following the pre-incubation, 10 μM ATP was added to initiate the reaction. After 60 minutes at room temperature, Molecular Devices IMAP™ binding solution was added to bind phosphorylated substrate. After 30 minutes of incubation in the presence of the IMAP™ beads, the fluorescence polarization was read and the ratio was reported as mP. IC50 values for compounds and EC50 values for ATP were calculated using the Prism software from Graphpad.

Akt3 = target: T4, Akt3 (Homo sapiens, UniProt Q9Y243); test: Akt3 inhibition assay (IMAP); assay type: biochemical; conditions: IMAP FP assay, 30 μM ATP; average
T4 construct: purchased Upstate Chemicon 14-502
T4 sequence (Q9Y243 whole entry): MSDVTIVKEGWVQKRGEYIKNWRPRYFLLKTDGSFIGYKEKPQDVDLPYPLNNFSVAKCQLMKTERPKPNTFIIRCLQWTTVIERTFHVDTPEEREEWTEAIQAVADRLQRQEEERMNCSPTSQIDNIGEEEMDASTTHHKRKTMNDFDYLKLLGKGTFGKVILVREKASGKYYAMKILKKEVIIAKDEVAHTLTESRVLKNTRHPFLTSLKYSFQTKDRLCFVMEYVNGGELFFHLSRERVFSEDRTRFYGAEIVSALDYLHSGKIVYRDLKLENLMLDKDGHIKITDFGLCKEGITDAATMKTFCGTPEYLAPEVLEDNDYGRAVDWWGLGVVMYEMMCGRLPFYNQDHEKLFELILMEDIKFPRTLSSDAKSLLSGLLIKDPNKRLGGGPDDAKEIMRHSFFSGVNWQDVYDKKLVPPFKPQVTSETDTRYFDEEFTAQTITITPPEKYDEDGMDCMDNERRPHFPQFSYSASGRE
Protocol: as §1

[5] = tested on: IL-1β secretion from LPS-stimulated human monocytes; test: Human monocyte cytokine secretion assay (LPS): IL-1β; assay type: cell-based; conditions: average percent of stimulated secretion from human monocytes, 10 μM test compound
Protocol: (§2) Peripheral blood from healthy human volunteers was collected and the monocytes isolated via Ficoll-paque density centrifugation. […] The cells were allowed to pre-incubate with test compound at the indicated concentration for 30 minutes (37° C., 5% CO2, humidified air); after which the supernatant was removed and media containing compound and 1 ng/mL LPS was added. Cells were allowed to incubate with compounds and LPS for 4 hours at 37° C. after which the supernatant was removed and stored at −80° C. Cytokine concentrations in the supernatant were determined using commercially available Bio-Rad Bio-plex™ kits according the manufacturer's instructions.

[6] = tested on: TNF-α secretion from LPS-stimulated human monocytes; test: Human monocyte cytokine secretion assay (LPS): TNF-α; assay type: cell-based; conditions: average percent of stimulated secretion from human monocytes, 10 μM test compound
Protocol: as §2

[7] = tested on: IL-6 secretion from LPS-stimulated human monocytes; test: Human monocyte cytokine secretion assay (LPS): IL-6; assay type: cell-based; conditions: average percent of stimulated secretion from human monocytes, 10 μM test compound
Protocol: as §2

LPS-challenged mice = test: LPS-induced cytokine production assay (IL-1β in BALF); assay type: in vivo, mouse; conditions: intratracheal, one hour prior to LPS challenge; BALF four hours after; FIG. 13
Protocol: Male BALB/c mice, approximately 19 to 21 grams, were ordered from Charles River Laboratories (Raleigh, N.C.). All animals were challenged with aerosolized LPS (10 μg/ml) for 25 minutes on study day 0. LPS aerosol was generated using an Aerogen Aeroneb nebulizer and controller providing a flow of 400 μl/min and a particle size of 2-4 μm MMAD. Rolipram was administered i.p at 20 mg/kg. […] Total cell counts were determined using the Coulter Counter. For differential evaluations, BALF was centrifuged and cytospin slides prepared and stained […]. Manual leukocyte counts were then completed on 200 cells. The final concentration of individual leukocyte cell types per ml of BALF was determined by multiplication of the relative percentage of individual leukocytes with the total amount of cells/ml of BALF fluid. The concentration of IL-1β in the BALF samples was determined using commercially available Bio-plex kits (Bio-Rad).

[8] = tested on: A-10 rat thoracic aorta cells; test: PDGF-stimulated smooth muscle cell proliferation assay (BrdU); assay type: cell-based; conditions: for Proliferation at 10 μM: 10 μM test compound
Protocol: Effects on cell proliferation were measured using a bromodeoxyuridine (BrdU) incorporation assay. […] Serum free media containing 0.1% BSA was added to the cells. 24 hours later the media was removed and replaced with warmed serum free media. […] Proliferation was then monitored using the BrdU Cell Proiferation Assay, HTS (Calbiochem cat. #HTS01). BrdU was allowed to incorporate into cells for 24 hours prior to the addition of fixative/denaturing solution and the fluorometric detection of incorporated BrdU using a BrdU antibody as per manufacturer's directions. Data are reported as a percent of the PDGF-stimulated BrdU incorporation.

[9] = IMAP FP assay, 30 μM ATP, read-out: p70S6K Ki, Avg
[10] = IMAP assay, 10 μM ATP, read-out: ROCK2 Ki, Avg
[11] = average percent of PDGF stimulated proliferation

For `Cc1ccc(CN2CCC[C@@H](Nc3ccc4[nH]ncc4c3)C2)cc1OCCO` [Compound 1.161], which activity at 1 µM (ERK2) is on record?
Its activity at 1 µM is 104%.

And the activity at 10 µM (ERK2)?
Its activity at 10 µM is 92%.

What about the airway hyperreactivity [1] of the same compound?
Its airway hyperreactivity is “prevention of airway hyperreactivity”.

Which “eosinophils per ml of BALF” value [2] does the source give for `c1cc2cc(CN3CCC[C@@H](Nc4ccc5[nH]ncc5c4)C3)ccc2o1` [Compound 1.131] here?
The value was “reduced”.

What about the “airway hyperreactivity to methacholine on Day 32” value ([1]; oral 15 μMol/kg once a day) of the same compound?
Its value is “prevention of airway hyperreactivity”.

For `OCCn1ccc2cc(CN3CC[C@@H](Nc4cccc5cnccc45)C3)ccc21` [Compound 2.066], which activity at 10 µM (ERK2) is on record?
The activity at 10 µM was 12%.

And the airway hyperreactivity [1]?
Its airway hyperreactivity is “prevention of airway hyperreactivity”.

Which results are given for `COc1ccc(CN2CCC[C@H](Nc3ccc4[nH]ncc4c3)C2)cc1` [Compound 1.079]?
Mouse Oral PK [3]: 2443 nM; Plasma Mean Concentration [3]: 2442.5 nM; Ki (p70S6K; [9]): 3010 nM; Ki (p70S6K; read-out: p70S6K Ki): 3010 nM

With `NC(=O)COc1cccc(CN2CCC[C@H](Nc3ccc4[nH]ncc4c3)C2)c1` [Compound 1.195] as the compound, how does the “Mouse Oral PK” value [3] read?
Its value is 108 nM.

What about the “Plasma Mean Concentration” value [3] of the same compound?
The value was 107.9 nM.

And the Ki (p70S6K; [9])?
The Ki was 2730 nM.

What about the Ki (p70S6K; read-out: p70S6K Ki) of the same compound?
The Ki was 2730 nM.

Which Vz_F [4] does the source give for `OCCOc1cccc(CN2CCC[C@@H](Nc3ccc4[nH]ncc4c3)C2)c1` [Compound 1.092] here?
The Vz_F was 19.0 L/kg.

Which Ki (ROCK2; [10]) does the source give for `Cc1ccc(CN2CCC[C@@H](Nc3ccc4[nH]ncc4c3)C2)cc1NS(=O)(=O)N(C)C` [Compound 1.262] here?
The Ki was 4 nM.

What about the Ki (ROCK2; read-out: ROCK2 Ki) of the same compound?
The Ki was 4 nM.

And the Ki (Akt3)?
The Ki was 861 nM.

What about the IL-1β [5] of the same compound?
The IL-1β was 145.7%.

And the TNF-α [6]?
Its TNF-α is 135.3%.

And the IL-6 [7]?
Its IL-6 is 156.6%.

For `NC(=O)Cn1ccc2cc(CN3CC[C@@H](Nc4cccc5cnccc45)C3)ccc21` [Compound 2.059], which “IL-1β in BALF” value (LPS-challenged mice) is on record?
The value was “reduction”.

And the activity at 1 µM (ERK2)?
The activity at 1 µM was 56%.

And the activity at 10 µM (ERK2)?
The activity at 10 µM was 12%.

What about the airway hyperreactivity [1] of the same compound?
Its airway hyperreactivity is “prevention of airway hyperreactivity”.

For `Cc1ccc(CN2CCC[C@H](Nc3ccc4[nH]ncc4c3)C2)cc1NS(=O)(=O)N(C)C` [Compound 1.237], which Ki (ROCK2; [10]) is on record?
Its Ki is 4 nM.

And the Ki (ROCK2; read-out: ROCK2 Ki)?
The Ki was 4 nM.

And the Ki (Akt3)?
Its Ki is 7910 nM.

And the “Percent of PDGF Induced Proliferation at 1 μM Avg” value ([8]; 1 μM, 10 ng/mL PDGF)?
Its value is 63.5%.

What about the “Percent of PDGF Induced Proliferation at 10 μM Avg” value ([8]; 10 μM, 10 ng/mL PDGF) of the same compound?
Its value is 51.4%.

What about the “Proliferation at 1 μM” value ([8]; average percent of PDGF stimulated proliferation, 1 μM test compound) of the same compound?
The value was 63.5%.

What about the “Proliferation at 10 μM” value [8, 11] of the same compound?
Its value is 51.4%.

What about the IL-1β [5] of the same compound?
The IL-1β was 97.1%.

And the TNF-α [6]?
Its TNF-α is 70.6%.

And the IL-6 [7]?
Its IL-6 is 100.9%.

With `CSc1ccc(CN2CC[C@@H](Nc3cccc4cnccc34)C2)cc1` [Compound 2.026] as the compound, how does the “AUC (0-last)” value [4] read?
Its value is “BLQ”.

What about the Cmax [4] of the same compound?
Its Cmax is “BLQ”.

What about the Tmax [4] of the same compound?
Its Tmax is “BLQ”.

What about the Vz_F [4] of the same compound?
Its Vz_F is “BLQ”.

And the t½ [4]?
Its t½ is “BLQ”.

And the “Proliferation at 10 μM” value [8, 11]?
The value was 52.0%.

With `CCc1ccc(CN2CCC[C@@H](Nc3ccc4[nH]ncc4c3)C2)cc1` [Compound 1.136] as the compound, how does the “AUC (0-last)” value [4] read?
Its value is “BLQ”.

And the Cmax [4]?
Its Cmax is “BLQ”.

What about the Tmax [4] of the same compound?
Its Tmax is “BLQ”.

What about the Vz_F [4] of the same compound?
The Vz_F was “BLQ”.

And the t½ [4]?
Its t½ is “BLQ”.
